In ChEMBL document CHEMBL1149940, “Conformationally constrained analogues of diacylglycerol. 6. Changes in PK-C binding affinity for 3-O-acyl-2-deoxy-L-ribonolactones bearing different acyl chains” (Bioorg Med Chem Lett, 1994):

Columns and labels:
[1] = Logarithm of water solubility was reported; type: ADME; details: buffer
[2] = Inhibition of [3H]phorbol-12,13-dibutyrate binding to mouse brain protein kinase C (No inhibition at >1700 uM)
Mus musculus = species: Mus musculus; test: Inhibition of [3H]phorbol-12,13-dibutyrate binding to mouse brain protein kinase C at 100 ug/mL
[3] = Inhibition of [3H]phorbol-12,13-dibutyrate binding to mouse brain protein kinase C
[4] = Inhibition of [3H]phorbol-12,13-dibutyrate binding to mouse brain protein kinase C (calculated value from percent inhibition at 100 ug/mL)

For CC(=O)O[C@@H]1CC(=O)O[C@H]1CO, the “log S” value [1] was 3.62 M/m3 and the Ki [2] was “Not Active”.
Work on O=C1C[C@H](OC(=O)c2ccc3ccccc3c2)[C@@H](CO)O1 yielded an inhibition (Mus musculus) of 28%.
In the case of CCCCCCCCCCCCCC(=O)O[C@H]1CC(=O)O[C@@H]1CO, the Ki [3] is reported as 5.3 µM.
For CCCCCCCc1ccc(C(=O)O[C@H]2CC(=O)O[C@@H]2CO)cc1, the Ki [3] was 8.9 µM.
Compound COc1ccc(C(=O)O[C@H]2CC(=O)O[C@@H]2CO)cc1 has an inhibition (Mus musculus) of 2%.
For CCCCCCCCCCC(CCCC)CCCCCCC(=O)O[C@@H]1CC(=O)O[C@H]1CO (some centres undefined), the “log S” value [1] was -6.46 M/m3 and the Ki [3] was 2.45 µM.
For CCCCCCCCCCC(CCCCCCC(=O)O[C@@H]1CC(=O)O[C@H]1CO)c1ccccc1 (some centres undefined), the “log S” value [1] was -6.91 M/m3 and the Ki [3] was 1.21 µM.
In the case of O=C1C[C@H](OC(=O)c2ccc(-c3ccccc3)cc2)[C@@H](CO)O1, the inhibition (Mus musculus) is reported as 6.5%.
Compound O=C1C[C@H](OC(=O)c2cccc3ccccc23)[C@@H](CO)O1 has an inhibition (Mus musculus) of 30%.
Work on O=C(/C=C/c1ccccc1)O[C@H]1CC(=O)O[C@@H]1CO yielded an inhibition (Mus musculus) of 18.5%.
With CCCCCCCC/C=C/CCCCCCCC(=O)O[C@@H]1CC(=O)O[C@H]1CO the “log S” value [1] was -3.9 M/m3 and the Ki [3] was 1.33 µM.
With CCCCCC(=O)O[C@@H]1CC(=O)O[C@H]1CO the “log S” value [1] was 1.54 M/m3 and the Ki [3] was 188 µM.
O=C1C[C@H](OC(=O)c2ccccc2)[C@@H](CO)O1 showed an inhibition (Mus musculus) of 9.5%.
With CCCCCCCCCCCCCCCCCC(=O)O[C@@H]1CC(=O)O[C@H]1CO the “log S” value [1] was -4.7 M/m3 and the Ki [3] was 8.69 µM.
For O=C1C[C@@H](OC(=O)Cc2ccccc2)[C@H](CO)O1, the Ki [4] was 222 µM and the “log S” value [1] was 1.09 M/m3.
With CCc1ccc(C(=O)O[C@H]2CC(=O)O[C@@H]2CO)cc1 the inhibition (Mus musculus) was 21%.
For CCCCCCCCCCCCCC(=O)O[C@@H]1CC(=O)O[C@H]1CO, the “log S” value [1] was -2.62 M/m3 and the Ki [3] was 2.53 µM.
With O=C1C[C@@H](OC(=O)c2cccc3ccccc23)[C@H](CO)O1 the “log S” value [1] was -0.18 M/m3 and the Ki [3] was 23.5 µM.
In the case of CCCCCCCCCCC(C)CCCCCCC(=O)O[C@@H]1CC(=O)O[C@H]1CO (some centres undefined), the “log S” value [1] is reported as -4.9 M/m3 and the Ki [3] is reported as 2.39 µM.
With O=C(Cc1ccccc1)O[C@H]1CC(=O)O[C@@H]1CO the inhibition (Mus musculus) was 29%.
With CCCCCCCc1ccc(C(=O)O[C@@H]2CC(=O)O[C@H]2CO)cc1 the “log S” value [1] was -2.05 M/m3 and the Ki [3] was 3.2 µM.
With CCCCCCCCCC(=O)O[C@@H]1CC(=O)O[C@H]1CO the “log S” value [1] was -0.54 M/m3 and the Ki [3] was 4.06 µM.
